Assay results taken from PMC11582173, “Synthesis, cytotoxicity, anti-inflammatory, anti-metastatic and anti-oxidant activities of novel chalcones incorporating 2-phenoxy-N-arylacetamide and thiophene moieties: induction of apoptosis in MCF7 and HEP2 cells” (Naunyn-Schmiedeberg's Archives of Pharmacology, 2024).
In brackets after ≈: the same amount, converted by molar mass. Several values for one entry are separate records, joined by “and”; a condition that tells them apart may be missing. Equal values may be shown once.

What was measured:
[1] = system: human breast carcinoma (MCF7) cells; assay: SRB cytotoxic assay, MCF7; format: cell-based; details: MCF7, 48 h
Method: All the prepared compounds were screened at a concentration of 100 µg/mL against six different human cell lines: human laryngeal carcinoma (HEP2), human colorectal carcinoma (HCT116), human breast carcinoma (MCF7), human Lung carcinoma (A549), human liver carcinoma (HEPG2), and normal African Green monkey kidney cell line (VERO). Doxorubicin was used as a positive control for comparison purposes.
The human laryngeal carcinoma (HEP2), colorectal carcinoma (HCT116), breast carcinoma (MCF7), Lung carcinoma (A549), liver carcinoma (HEPG2), and normal African Green monkey kidney cell line (VERO) were purchased from American Tissue Culture Collection (Rockville, MD, USA). The cells were treated for 48 h with a single dose (100 µg/mL) of all the tested chalcones. […] In brief, the cells were seeded in a 96-well microtiter plate at a concentration of 5×10^3 cells/well in 100 µL fresh RPMI-1640 medium and left to attach to the plates for 24 h. Then, cells were incubated with 100 μL of different concentrations (50, 25, 12.5, 6.25, and 0.0 µg/mL) of 5c in triplicate at 37 °C for 48 h. After that, the cells were fixed with 10 µL cold 100% Trichloroacetic acid (TCA) for 1h at 4 °C. The wells were then washed 1 time with distilled water using (automatic Tecan washer, Germany) and stained for 30 min at room temperature with 50 µL 0.4% SRB dissolved in 1% acetic acid. The plates were air-dried and the dye was solubilized with 100 µl/well of 1M tris base (pH 10.5) for 5 min. The optical density (O.D.) of each well was measured spectrophotometrically at 570 nm with an ELISA microplate reader (Sunrise Tecan reader, Germany) with automatic shaking for 30 seconds before reading. The mean background absorbance was subtracted automatically and mean values for each drug concentration were calculated. The percentage of cell survival was calculated as follows: Survival fraction= O.D. (treated cells)/ O.D. (control cells) (Bhat et al. [2023]).

MMP9 = assay: ELISA, MMP9 concentration; format: cell-based, human
Method: (§1) The concentrations of matrix metalloproteinase-2 (MMP2), matrix metalloproteinase-9 (MMP9), Bcl2, BAX, P53, Malondialdehyde (MDA), Glutathione (GSH), caspase 8, caspase 9 and IL-6 were measured quantitatively in 5c treated MCF7 and HEP2 cells using ELISA (Enzyme-Linked Immunosorbent Assay) (Table 4). Gelatinases are a collective word for MMP-2 and MMP-9, where MMP-2 is gelatinase-A and MMP-9 is gelatinase-B. Solid tumor invasion, metastasis, and angiogenesis have long been linked to gelatinases (Das et al. [2021]). […] Bcl2 is a crucial protein that targets apoptosis inhibition. It is regarded as a predictive biomarker or therapeutic target in the diagnosis of cancer due to its broad expression in a variety of cancers (Porter et al. [2009]). […] The pro-apoptotic protein BAX permeabilizes the mitochondrial outer membrane by changing from a cytosolic monomer to a hazardous oligomer triggering the apoptosis process (Fulda and Debatin [2006]). […] P53 transcription factor performs an essential tumor suppressor role by coordinating a wide range of physiological responses, including DNA repair, cell cycle arrest, cellular senescence, cell death, cell differentiation, and metabolism (Liebl and Hofmann [2021]). It was activated in MCF7 and HEP2-treated cells with values (4.28 and 3.109 ng/mL), respectively, compared to their controls (3.44 and 2.06 ng/mL). […]

Glutathione (GSH) = assay: ELISA, GSH concentration; format: cell-based, human
Method: as §1

Caspase 8 = assay: ELISA, Caspase 8 concentration; format: cell-based, human
Method: as §1

Caspase 9 = assay: ELISA, Caspase 9 concentration; format: cell-based, human
Method: as §1

`COc1ccc(NC(=O)COc2ccc(C=CC(=O)c3cccs3)cc2)cc1` [Compound 5c, N-(4-Methoxyphenyl)-2-(4-(3-oxo-3-(thiophen-2-yl)prop-1-en-1-yl)phenoxy)acetamide] was tested, and the IC50 [1] was 9.5 µg/mL (≈ 24.1 µM), the inhibition at 100 µg/mL ([1]; single dose 100 µg/mL, read-out: %Inhibition at100 µg/mL MCF7) was greater than 75% and the MMP9 concentration (MMP9; 5c treated HEP2 cells, untreated 564.8±41.45) was 236.5 ng/mL and 236.5 ± 24.87 ng/mL. For the same compound, the MMP9 concentration (MMP9; 5c treated MCF7 cells, untreated 588.28±24.87) was 271.6 ng/mL and 271.6 ± 58.04 ng/mL, the GSH concentration (Glutathione (GSH); 5c treated HEP2 cells, untreated 0.668±0.010) was 0.821 ng/mL and 0.821 ± 0.009 ng/mL and the GSH concentration (Glutathione (GSH); 5c treated MCF7 cells, untreated 0.737±0.009) was 0.939 ng/mL and 0.939 ± 0.022 ng/mL. The Caspase8 concentration (Caspase 8; 5c treated HEP2 cells, untreated 0.187±0.025) was 2.27 ng/mL and 2.27 ± 0.142 ng/mL, the Caspase8 concentration (Caspase 8; 5c treated MCF7 cells, untreated 0.162±0.0203) was 2.13 ng/mL and 2.13 ± 0.268 ng/mL and the Caspase9 concentration (Caspase 9; 5c treated HEP2 cells, untreated 3.70±0.18) was 27.54 ng/mL and 27.54 ± 0.68 ng/mL. For the same compound, the Caspase9 concentration (Caspase 9; 5c treated MCF7 cells, untreated 3.66±0.49) was 28.03 ng/mL and 28.03 ± 0.49 ng/mL.
